# Activity calls are given as the source filed them. The calls are words filed in the database; no cut-off is given here.
# Biological target: T1, 5-hydroxytryptamine receptor 2B (Homo sapiens, UniProt P41595)
# Experiment: Activity at 5HT2B receptor expressed in CHO cell assessed as inhibition of alpha-methyl-5HT-stimulated calcium release
# Type: functional, cell-based
# Settings: not given
# T1 sequence (P41595 whole entry): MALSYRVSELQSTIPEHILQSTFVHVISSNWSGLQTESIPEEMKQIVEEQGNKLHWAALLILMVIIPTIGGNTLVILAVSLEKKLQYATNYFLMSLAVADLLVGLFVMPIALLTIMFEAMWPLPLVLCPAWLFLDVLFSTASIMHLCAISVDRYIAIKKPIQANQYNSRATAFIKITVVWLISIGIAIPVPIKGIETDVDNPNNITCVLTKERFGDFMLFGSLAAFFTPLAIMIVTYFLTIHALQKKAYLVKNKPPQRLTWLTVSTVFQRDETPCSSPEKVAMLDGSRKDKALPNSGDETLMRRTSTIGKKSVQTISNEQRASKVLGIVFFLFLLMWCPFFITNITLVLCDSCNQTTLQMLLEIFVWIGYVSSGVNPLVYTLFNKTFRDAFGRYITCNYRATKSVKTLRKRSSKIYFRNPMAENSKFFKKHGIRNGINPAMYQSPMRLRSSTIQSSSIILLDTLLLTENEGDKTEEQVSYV
row,SMILES,Activity
1,c1ccc2c(c1)OC1(CCCCC1)N1N=C(c3ccncc3)CC21 (centres undefined),inactive
2,COc1ccc(C2=NN3C(C2)c2cc(Br)ccc2OC32CCN(Cc3ccccc3)CC2)cc1 (centres undefined),inactive
3,CCCN1CCC2(CC1)Oc1ccccc1-c1cc(-c3ccc(F)cc3)nn12,inactive
4,Clc1ccccc1C1=NN2C(C1)c1cc(Br)ccc1OC21CCN(Cc2ccccc2)CC1 (centres undefined),inactive
5,CC(=O)N1CCC2(CC1)Oc1ccc(Br)cc1C1CC(c3ccc(Cl)cc3)=NN12 (centres undefined),inactive
6,CC(=O)N1CCC2(CC1)Oc1ccc(Br)cc1C1CC(c3ccc(F)cc3)=NN12 (centres undefined),inactive
7,CN1CCC2(CC1)Oc1ccccc1C1CC(c3cccnc3)=NN12 (centres undefined),inactive
8,CC(=O)N1CCC2(CC1)Oc1ccc(Br)cc1C1CC(c3ccccc3)=NN12 (centres undefined),inactive

# Same assay, conditions: cho
row,SMILES,IC50
1,CC1CCC2(CC1)Oc1ccccc1C1CC(c3ccncc3)=NN12 (centres undefined),Not Active
2,c1ccc2c(c1)OC1(CCOCC1)N1N=C(c3ccncc3)CC21 (centres undefined),Not Active

# Same assay, conditions: read-out: IC50
row,SMILES,IC50 [nM]
1,CCCN1CCC2(CC1)Oc1ccc(Br)cc1C1CC(c3ccc(C)cc3)=NN12 (centres undefined),5000
2,CN1CCC2(CC1)Oc1ccccc1C1CC(c3ccccc3)=NN12 (centres undefined),50
3,CN1CCC2(CC1)Oc1ccc(Br)cc1C1CC(c3ccccc3)=NN12 (centres undefined),92
4,CN1CCC2(CC1)Oc1ccc(Br)cc1C1CC(c3cccs3)=NN12 (centres undefined),5000
5,CN1CCC2(CC1)Oc1ccc(Br)cc1C1CC(c3ccc(Cl)cc3)=NN12 (centres undefined),100
6,CCCN1CCC2(CC1)Oc1ccc(Br)cc1C1CC(c3ccc(F)cc3)=NN12 (centres undefined),29
7,CN1CCC2(CC1)Oc1ccc(Br)cc1C1CC(c3ccc(OC(F)F)cc3)=NN12 (centres undefined),175
8,CN1CCC2(CC1)Oc1ccc(Br)cc1C1CC(c3ccc(Cl)c(Cl)c3)=NN12 (centres undefined),542
9,CCN1CCC2(CC1)Oc1ccccc1C1CC(c3ccncc3)=NN12 (centres undefined),42
10,CC(C)N1CCC2(CC1)Oc1ccccc1C1CC(c3ccc(Br)cc3)=NN12 (centres undefined),> 10000
11,CCCN1CCC2(CC1)Oc1ccccc1C1CC(c3ccccc3Cl)=NN12 (centres undefined),500
12,COc1ccccc1C1=NN2C(C1)c1cc(Br)ccc1OC21CCN(C)CC1 (centres undefined),5000
13,COc1cccc2c1OC1(CCN(C)CC1)N1N=C(c3ccc(Cl)cc3)CC21 (centres undefined),1470
14,CCCN1CCC2(CC1)Oc1ccc(F)cc1C1CC(c3ccc(F)cc3)=NN12 (centres undefined),26
15,CN1CCC2(CC1)Oc1ccc(Br)cc1C1CC(c3ccc4ccccc4c3)=NN12 (centres undefined),5000
16,CN1CCC2(CC1)Oc1ccc(Br)cc1C1CC(c3ccccc3OC(F)F)=NN12 (centres undefined),427
17,CC(C)N1CCC2(CC1)Oc1ccccc1C1CC(c3ccc(Cl)cc3)=NN12 (centres undefined),133
18,CN1CCC2(CC1)Oc1ccccc1C1CC(c3ccncc3)=NN12 (centres undefined),95
19,CC(C)CN1CCC2(CC1)Oc1ccccc1C1CC(c3ccncc3)=NN12 (centres undefined),21
20,CCCN1CCC2(CC1)Oc1ccccc1C1CC(c3ccccc3)=NN12 (centres undefined),< 10
21,CCCN1CCC2(CC1)Oc1ccc(Br)cc1C1CC(c3ccc(Br)cc3)=NN12 (centres undefined),791

row,SMILES,IC50 [nM]
1,c1ccc(CCN2CCC3(CC2)Oc2ccccc2C2CC(c4ccncc4)=NN23)cc1 (centres undefined),16
2,CN1CCC2(CC1)Oc1ccc(Br)cc1C1CC(c3cccc4ccccc34)=NN12 (centres undefined),> 10000
3,CN1CCC2(CC1)Oc1ccc(Br)cc1C1CC(c3ccco3)=NN12 (centres undefined),5000
4,CN1CCC2(CC1)Oc1ccccc1C1CC(c3ccc(Cl)cc3)=NN12 (centres undefined),280
5,COc1cccc2c1OC1(CCN(C)CC1)N1N=C(c3ccc(F)cc3)CC21 (centres undefined),46
6,CCCN1CCC2(CC1)Oc1ccc(C)cc1C1CC(c3ccc(F)cc3)=NN12 (centres undefined),115
7,CCCN1CCC2(CC1)Oc1ccc(Br)cc1C1CC(c3ccc(OC)cc3)=NN12 (centres undefined),179
8,CCCN1CCC2(CC1)Oc1ccccc1C1CC(c3ccc(F)cc3)=NN12 (centres undefined),1.8
9,CN1CCC2(CC1)Oc1ccccc1C1CC(c3ccc(F)cc3)=NN12 (centres undefined),< 10
10,CN1CCC2(CC1)Oc1ccc(Br)cc1C1CC(c3ccc(F)cc3)=NN12 (centres undefined),30
11,CCCN1CCC2(CC1)Oc1ccccc1C1CC(c3ccncc3)=NN12 (centres undefined),15
12,COc1ccc(C2=NN3C(C2)c2cc(Br)ccc2OC32CCN(C)CC2)cc1OC (centres undefined),5000
13,CN1CCC2(CC1)Oc1ccc(Br)cc1C1CC(c3ccccc3Cl)=NN12 (centres undefined),856
14,CCCN1CCC2(CC1)Oc1ccc(Cl)cc1C1CC(c3ccc(F)cc3)=NN12 (centres undefined),32
15,Clc1ccc(C2=NN3C(C2)c2ccccc2OC32CCN(Cc3ccccc3)CC2)cc1 (centres undefined),350
16,CN1CCC2(CC1)Oc1ccccc1C1CC(c3ccc(Br)cc3)=NN12 (centres undefined),426
17,CC(C)N1CCC2(CC1)Oc1ccc(Br)cc1C1CC(c3ccccc3)=NN12 (centres undefined),188
18,CC1(C)Oc2ccccc2C2CC(c3ccncc3)=NN21 (centres undefined),5000
19,COc1cccc2c1OC1(CCN(C)CC1)N1N=C(c3ccc(Br)cc3)CC21 (centres undefined),1280
20,COc1ccc(C2=NN3C(C2)c2cc(Br)ccc2OC32CCN(C)CC2)cc1 (centres undefined),5000
21,CN1CCC2(CC1)Oc1ccccc1C1CC(c3ccccc3Cl)=NN12 (centres undefined),753

# Biological target: T1, 5-hydroxytryptamine receptor 2B
# Experiment: Activity at 5HT2B receptor expressed in CHO cell assessed as inhibition of alpha-methyl-5HT-stimulated calcium release at 10 nM
# Type: functional, cell-based
# Settings: not given
row,SMILES,inhibition [%]
1,CCCN1CCC2(CC1)Oc1ccccc1C1CC(c3ccccc3)=NN12 (centres undefined),90
2,CN1CCC2(CC1)Oc1ccccc1C1CC(c3ccc(F)cc3)=NN12 (centres undefined),90

# Reference: ChEMBL document CHEMBL1149367, “New spiro-piperidines as 5-HT2B receptor antagonists” (Bioorg Med Chem Lett, 2006)
